# According to patent US20070128589A1, “Substrates, sensors, and methods for assessing conditions in females” (priority 2005, published 2007):
# Entries after “also recorded” stand apart in the source; their conditions may differ. No end group written: not given here.
# Assays:
# [1] = system: unidentified protease from Lactobacillus acidophilus; experiment: Peptide-HRP Affigel bead detection of Lactobacillus protease; format: biochemical; conditions: FIG. 12
# Description: The two putative peptides were synthesized, coupled to Affigel beads (Bio-Rad, Hercules Calif.), and then labeled with horseradish peroxidase in the following manner:
# Peptides were coupled to Affigel beads as described by the manufacturer. Similar results were obtained using small latex beads with carboxylic acid groups. Briefly, 1 mg of peptide was incubated with 1 ml of affigel in conjugation buffer (phosphate buffered saline) for 1-2 hours at room temperature. For the small latex beads functionalized with carboxylic acids, the peptides/proteins are coupled with EDC (1-ethyl-3-[3 dimethylaminopropyl] carbodiimide hydrochloride). The beads are either used immediately or conjugated further with HRP-maleimide or stored at 4° C. under a cushion of 2% trehalose or 2% sucrose.
# HRP is conjugated to sulfo-SMCC though a reactive primary amine group. The reaction is performed for 1 hour in the presence of 50 mM sodium phosphate buffer (pH 7.4). The functionalized HRP is removed from the unbound sulfo-SMCC by gel filtration using P6 Biogel P polyacrylamide beads, Biorad (Hercules, Calif.) or Sephadex G50 beads (Amersham Biosciences, Piscataway, N.J.). The HRP-maleimide elutes in the void volume, whereas the free sulfo-SMCC elutes very slowly from the column. The HRP binds hemin, and, thus, has a brown color that can be used to quickly identify the void volume containing the HRP-maleimide. […]
# Gardnerella vaginalis = experiment: HRP release from Affigel-GV2-HRP beads, ABTS/H2O2 read at 405 nm; format: biochemical; conditions: peptide conjugated to HRP on Affigel beads, 5 minutes
# Description: Various bacteria were cultured overnight at 37° C. in NYC III media with 5% CO2. A 10% slurry of Affigel-GV2-HRP in PBS was prepared, and 20 μl was added to six wells of a 96-well filter plate (Millipore Multi-screen HTS). Aliquots of the bacteria, including Gardnerella vaginalis, Pseudomonas aeruginosa, E. coli, Streptococcus pyogenes, Enterococcus faecalis, and Staphylococcus aureus, were added (100 μl) to the beads, and the plate was allowed to sit for 5 minutes at ambient temperature. The supernatants were centrifuged into a low-binding assay plate (Coming 3641), and assays for HRP were then run. […]
# Gardnerella vaginalis was detected with the peptide PFINETYAKFC (SEQ ID NO: 1) which was conjugated to HRP. […] Alternatively, the color change can be measured on a plate reader at 405 nm.
# (§1) FIG. 11 illustrates the specificity of the GV2 (PFINETYAKFC) (SEQ ID NO: 1) peptide for Gardnerella vaginalis over the course of five minutes when incubated with Gardnerella vaginalis, Staphylococcus aureus, Streptococcus pyogenes, Escherichia coli (E. coli), Pseudomonas aeruginosa, and Enterococcus faecalis. The extracts were filtered through microtiter plate filters and the HRP release was measured at 405 nm with ABTS substrate in the presence of hydrogen peroxide (H202).
# E. coli = experiment: as above; format: biochemical, Escherichia coli; conditions: 5 minutes at ambient temperature
# Description: (§2) Various bacteria were cultured overnight at 37° C. in NYC III media with 5% CO2. A 10% slurry of Affigel-GV2-HRP in PBS was prepared, and 20 μl was added to six wells of a 96-well filter plate (Millipore Multi-screen HTS). Aliquots of the bacteria, including Gardnerella vaginalis, Pseudomonas aeruginosa, E. coli, Streptococcus pyogenes, Enterococcus faecalis, and Staphylococcus aureus, were added (100 μl) to the beads, and the plate was allowed to sit for 5 minutes at ambient temperature. The supernatants were centrifuged into a low-binding assay plate (Coming 3641), and assays for HRP were then run. 2,2′-azino-bis(3-ethylbenzthiazoline-6-sulfonic acid) (ABTS, US Biological) is a commonly used substrate for HRP, giving a water-soluble blue-green color in the presence of HRP and hydrogen peroxide. The formation of the bluegreen color can be followed at 405 nm, with higher slopes indicating the presence of higher amounts of HRP.
# [2] = system: Staphylococcus aureus, Streptococcus pyogenes, Escherichia coli (E. coli), Pseudomonas aeruginosa, and Enterococcus faecalis; experiment: HRP release from GV2-HRP beads, specificity against other common pathogens; format: biochemical; conditions: five minutes, FIG. 11
# Description: as §2, with “The formation of the bluegreen color can be followed at 405 nm, with higher slopes indicating the presence of higher amounts of HRP.” left out
# as §1
# C. albicans [3] = experiment: G11 peptide detection of C. albicans grown in artificial vaginal fluid; format: biochemical, Candida albicans; conditions: FIG. 23
# C. albicans [4] = experiment: Identification of peptide targets for C. albicans; format: biochemical, Candida albicans
# Description: Clones of green fluorescent protein (GFP) tagged conjugates were used to identify targets in a high throughput screen. Each clone contained a plasmid harboring a gene that contains a polyhistidine tag (6 his), 30 random nucleotides (corresponding to 10 random amino acids), and green fluorescent protein (GFP). On the day before a screen, 864 glowing clones are grown up overnight at 37° C. in deep well microtiter plates (1 ml/well). In the morning, the cultures can be induced with 1 mM IPTG for 1 hour, the cells can be centrifuged for five minutes, and then the media can be decanted. Lysozyme (2 mg/ml) can be added and the cells can be flash frozen 3 times. The samples can be treated with 100 ul/well of DNAse I at 37° C. for 30 minutes to reduce the viscosity by digesting the DNA. An aliquot of the sample can then be transferred to a microtiter filter plate containing 10 μl of nickel-NTA resin. The pipeting of the reagents (IPTG, lysozyme, DNAse I, and beads) can be performed with a Tecan Genesis RSP 100 Robot with Gemini version 4.0 software.
# The plates can be filtered by centrifugation three times with PBS to remove unbound material and then the GFP-peptide-bound bead can be incubated with microbial extract for 20 min at 37° C. The sample can be filtered and the flow through fluorescence can be compared with the background from the prior wash. If the microbe has a protease that finds the ideal target, then the release of GFP fluorescence from the bead can be over 100 times greater than the background.
# (SEQ ID NO: 8), the sequence QKTTIKKLKH (H2) (SEQ ID NO: 9), the sequence KPKAFLKVGN (R8) (SEQ ID NO: 6), the sequence TPIQIHTILH (SEQ ID NO: 10), the sequence […] (SEQ ID NO: 11), the sequence […] (SEQ ID NO: 12), and the sequence […] (SEQ ID NO: 13).
sequence,measurement,setting,value
ITTTSSKHEHC (Peptide Substrate of Lactobacillus acidophilus) [peptide substrate detecting a protease from Lactobacillus],detection of protease from Lactobacillus,[1],detects an unknown protease; also recorded: detects an unidentified protease
PFINETYAKFC (also: Affigel bead and HRP conjugate) [GV2],HRP release / color change with H2O2 and ABTS substrate,Gardnerella vaginalis,quite specific for G. vaginalis; also recorded: turns blue; also recorded: detects unidentified protease from G. vaginalis
same,HRP release / color change with H2O2 and ABTS substrate,Gardnerella vaginalis; listed as PFINETYAKFC,color change was observed quickly
same,"HRP release signal (ABTS, 405 nm)",E. coli,small amount of signal
same,"color change (HRP release, ABTS, 405 nm) with other common pathogens",[2],not in the presence of other common pathogens
TPIQIHTILH (Peptide Substrate of Candida spp.) [G11],ability to detect C. albicans,C. albicans [3],able to detect C. albicans; also recorded: able to detect Candida albicans
same,identified as peptide target for C. albicans,C. albicans [4],peptide targets for C. albicans
